From US10526370B2, “Pentapeptide associated with integrin receptor alpha vbeta3” (priority 2015, dated 2020)
Entries after “also recorded” stand apart in the source; their conditions may differ. Like-named read-outs stand apart in the source and are kept apart here. Where a SMILES comes first, the peptide text is derived from it. [ ]: non-standard residue; d: D form.

Key:
MDA-MB-231 cells = assay: In vitro cellular uptake assay (laser confocal microscopy); type: cell-based, human; settings: MDA-MB-231, 500 μmol/L, 2-hour incubation at 37° C., FIG. 3
Method: (§1) The cultured human glioma cells U87MG, human breast cancer cells MDA-MB-231, human breast cancer cells MCF-7 and normal liver cells L02 were transferred to a confocal dish respectively, and incubated overnight. Then, the rhodamine B-labeled pentapeptide was added at the same concentration (500 μmol/L). The cyclic RGD labeled with the rhodamine B is added and used as a positive control. After 2-hour incubation at 37° C., the cells were stained with 12 μg/mL of the nuclear staining reagent Hochest 33342. Finally, the intracellular uptake of the probe was observed under a laser confocal microscope.

MCF-7 cells = assay: as above; type: cell-based, human; settings: MCF-7, 500 μmol/L, 2-hour incubation at 37° C., FIG. 4
Method: as §1

U87MG cells [1] = assay: as above; type: cell-based, human; settings: 500 μmol/L, 2-hour incubation at 37° C., FIG. 3
Method: as §1

[2] = In vitro cellular cytotoxicity assay; type: cell-based; settings: human
Method: When the U87MG cells, MCF-7 cells and normal liver cells L02 were grown to 90% confluent or higher, the cells were digested with 0.25% trypsin and then suspended in a complete growth medium to obtain a single cell suspension. The cells were plated at a density of 3000 cells/well in a 96-well plate, and cultured at 37° C. in an incubator containing 5% CO2. After 24-hour incubation, the medium was changed to a low-serum culture medium supplemented with 1% FBS. Then, the pentapeptide was added at different concentration gradients, to achieve a final concentration of 2.5, 5, 10, 20, 40, 80, 100 and 200 μM.

L02 cells = assay: In vitro cellular uptake assay (laser confocal microscopy); type: cell-based; settings: L02, 500 μmol/L, 2-hour incubation at 37° C., FIG. 4
Method: as §1

U87MG cells [3] = assay: In vitro cell affinity test (flow cytometry); type: cell-based, human; settings: rhodamine-labeled peptides, FIG. 1
Method: The human malignant glioma cells (U87MG) and the human breast cancer cells (MDA-MB-231) were cultured in a 6-well plate for 12 hours. Then, 100 μL of a polypeptide fluorescent probe labeled with rhodamine B (final concentration 250 μM) was added and co-incubated for 2 hours with gently shaking on a shaker at 37° C. Next, the cells were digested with 0.05% trypsin and washed off from the 6-wells plate. The cells were re-suspended in 1 mL PBS buffer (pH 7.2), and centrifuged (3500 r, 5 min). The supernatant was aspirated and discarded. The pellet was washed twice with a PBS buffer (pH7.2). After washing, the cells were re-suspended in a PBS buffer (pH 7.2). The mean fluorescence intensity (MFI) of the cells was quantified by using a flow cytometer. The higher the fluorescence intensity is, the greater the affinity for the cells will be. When the probe has a high affinity for the receptor on the cells, the cells have a high value of MFI measured by the flow cytometer. […] The dye used as a blank has a MFI of 25.

CSCC[C@H](NC(=O)[C@H](CC(N)=O)NC(=O)[C@@H](CCCNC(=N)N)NC(=O)[C@H](Cc1c[nH]c2ccccc12)NC(=O)[C@@H](N)CCCNC(=N)N)C(N)=O [pentapeptide, Arg-Trp-Arg-Asn-Met] (H-RW[dR]NM-NH2; N-terminus and C-terminus assumed)
intracellular uptake of the probe (fluorescence intensity) (MDA-MB-231 cells): strong ability to uptake; also recorded: strong fluorescence intensity | intracellular uptake of the probe (fluorescence intensity) (MCF-7 cells): poor affinity and low | intracellular uptake of the probe (fluorescence intensity) (U87MG cells [1]): strong ability to uptake; also recorded: strong fluorescence intensity | viability ([2]; MCF-7 cells, MCF-7, pentapeptide 2.5-200 μM, FIG. 6, read-out: cell survival rate): ≥ 80% | viability ([2]; U87MG cells, pentapeptide 2.5-200 μM, FIG. 6, read-out: cell survival rate): ≥ 80% | viability ([2]; normal liver cells L02, L02, pentapeptide 2.5-200 μM, FIG. 6, read-out: cell survival rate): ≥ 80% | intracellular uptake of the probe (fluorescence intensity) (L02 cells): poor affinity and low | affinity for U87 cells (comparison in words) (U87MG cells [3]): greatest affinity
